The values that follow come from US6436979B1 (priority 2000, dated 2002).

Where two headings read alike, the source gives them in different places.

This assay has as its system Phytophthora infestans. Format: in vivo. As to conditions: tomato leaves infected next day with zoospore suspension, evaluated after 6 days, untreated control 89% infection.
Setting [1] is: conc. in the spray liquor 0.06 ppm.
Setting [2] is: conc. in the spray liquor 0.25 ppm.

Take `COC(=O)N(OC)c1ccccc1COc1ccn(-c2ccc(Cl)cc2)n1` [Compound I.32]: the “Efficacy in % of the untreated control” value is reported as 10% under setting [1] and 55% under setting [2]. For `COC(=O)N(OC)c1ccccc1COc1ccn(-c2ccc(C)cc2)n1` [Compound I.38], in that order: 0% and 33%. For `CNC(=O)C(=NOC)c1ccccc1COc1cc(C)ccc1C` [Compound III], in that order: 0% and 33%. In the case of `CON=C(C(=O)OC)c1ccccc1COc1ccccc1C` [Compound II], the “Efficacy in % of the untreated control” value under setting [1] stood at 10%. For `CC(C)OC(=O)NC(C(=O)NC(C)c1nc2ccc(F)cc2s1)C(C)C` (centres unmarked) [Compound IV/1], under setting [1], the “Efficacy in % of the untreated control” value was 21%.
